# Paper PMC2674329 (The Journal of steroid biochemistry and molecular biology, 2008)
# Read-outs that look alike come from different tables or passages of the source.
# Columns and labels:
# Type in all cases: biochemical
# [1] = target: T1, human placental cytosolic COMT (Homo sapiens, UniProt P21964); details: for Km: read-out: KM of the substrate for O-methylation
# T1 sequence (P21964 1-221 isoform P21964-2): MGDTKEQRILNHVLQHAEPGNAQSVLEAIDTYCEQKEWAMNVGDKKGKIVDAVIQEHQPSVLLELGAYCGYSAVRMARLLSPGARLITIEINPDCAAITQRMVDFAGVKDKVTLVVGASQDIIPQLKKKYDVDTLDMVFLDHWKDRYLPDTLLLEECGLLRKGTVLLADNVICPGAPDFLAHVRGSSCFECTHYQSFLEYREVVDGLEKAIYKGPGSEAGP
# [2] = target: T2, human liver cytosolic COMT (Homo sapiens, UniProt P21964)
# T2 sequence (P21964 1-221 isoform P21964-2): T1 sequence (P21964 1-221 isoform P21964-2)
# [3] = target: T3, human liver and placental cytosolic COMT (Homo sapiens, UniProt P21964)
# T3 sequence (P21964 1-221 isoform P21964-2): T1 sequence (P21964 1-221 isoform P21964-2)
# [4] = range over liver and placental samples (summary)
structure (smiles),measurement,setting,value
"C[C@]12CC[C@@H]3c4cc(O)c(O)cc4CC[C@H]3[C@@H]1CC[C@@H]2O [2-OH-E2, 2-hydroxyestradiol, reference compound]",VMAX of the substrate for O-methylation,[1]; HP17C (no inhibitor),2274 pmol/mg protein/min
same,VMAX of the substrate for O-methylation,[1]; HP18C (no inhibitor),4815 pmol/mg protein/min
same,VMAX of the substrate for O-methylation,[1]; HP20C (no inhibitor),1650 pmol/mg protein/min
same,Km,[1]; HP17C (no inhibitor),1.3 µM
same,Km,[1]; HP18C (no inhibitor),1 µM
same,Km,[1]; HP20C (no inhibitor),0.7 µM
"C[C@]12CC[C@@H]3c4ccc(O)c(O)c4CC[C@H]3[C@@H]1CC[C@@H]2O [4-OH-E2, 4-hydroxyestradiol, reference compound]",VMAX of the substrate for O-methylation,[1]; HP17C (no inhibitor),1827 pmol/mg protein/min
same,VMAX of the substrate for O-methylation,[1]; HP18C (no inhibitor),1918 pmol/mg protein/min
same,VMAX of the substrate for O-methylation,[1]; HP20C (no inhibitor),759 pmol/mg protein/min
same,Km,[1]; HP17C (no inhibitor),3.2 µM
same,Km,[1]; HP18C (no inhibitor),4.2 µM
same,Km,[1]; HP20C (no inhibitor),3.5 µM
same,VMAX of the substrate for O-methylation,"[2]; HL1C (no inhibitor), experiment with 1 μM chlorogenic acid",6408 pmol/mg protein/min
same,VMAX of the substrate for O-methylation,"[2]; HL1C (no inhibitor), experiment with 2 μM caffeic acid",6401 pmol/mg protein/min
same,VMAX of the substrate for O-methylation,[2]; HL6C (no inhibitor),6310 pmol/mg protein/min
same,Km,"[2]; read-out: KM of the substrate for O-methylation, HL6C (no inhibitor)",7.1 µM
"O=C(O)/C=C/c1ccc(O)c(O)c1 [Caffeic acid, caffeic acid]","VMAX, 4-OH-E2 as substrate, in presence of inhibitor","[1]; HP17C + 2 μM inhibitor, no inhibitor: 1827",531 pmol/mg protein/min
same,"VMAX, 4-OH-E2 as substrate, in presence of inhibitor","[1]; HP17C + 0.5 inhibitor (unit of concentration not given), no inhibitor: 1827",1572 pmol/mg protein/min
same,"VMAX, 2-OH-E2 as substrate, in presence of inhibitor","[1]; HP17C + 0.5 inhibitor (unit of concentration not given), no inhibitor: 2274",2078 pmol/mg protein/min
"O=C(/C=C/c1ccc(O)c(O)c1)O[C@@H]1C[C@](O)(C(=O)O)C[C@@H](O)[C@H]1O [Chlorogenic acid, chlorogenic acid]","VMAX, 4-OH-E2 as substrate, in presence of inhibitor","[1]; HP18C + 0.25 μM inhibitor, no inhibitor: 1918",1480 pmol/mg protein/min
same,"VMAX, 2-OH-E2 as substrate, in presence of inhibitor","[1]; HP18C + 0.25 μM inhibitor, no inhibitor: 4815",3960 pmol/mg protein/min
same,"VMAX, 4-OH-E2 as substrate, in presence of inhibitor","[1]; HP18C + 0.5 μM inhibitor, no inhibitor: 1918",1146 pmol/mg protein/min
same,"VMAX, 2-OH-E2 as substrate, in presence of inhibitor","[1]; HP18C + 0.5 μM inhibitor, no inhibitor: 4815",3648 pmol/mg protein/min
same,"VMAX, 4-OH-E2 as substrate, in presence of inhibitor","[1]; HP20C + 0.5 μM inhibitor, no inhibitor: 759",312 pmol/mg protein/min
same,"VMAX, 2-OH-E2 as substrate, in presence of inhibitor","[1]; HP20C + 0.5 μM inhibitor, no inhibitor: 1650",1311 pmol/mg protein/min
same,"increase of KM value, 2-OH-E2 as a substrate",[1]; inhibitor at 0.25 μM,approximately 2 fold
same,"increase of KM value, 4-OH-E2 as a substrate",[1]; inhibitor at 0.25 μM,approximately 1.2 fold
same,"increase of KM value, 2-OH-E2 as a substrate",[1]; inhibitor at 0.5 μM,~4 fold
same,"increase of KM value, 4-OH-E2 as a substrate",[1]; inhibitor at 0.5 μM,approximately 2 fold
same,"decrease of VMAX value, 2-OH-E2 as a substrate",[1]; inhibitor at 0.25 and 0.5 μM,approximately 20%
same,"decrease of VMAX value, 4-OH-E2 as a substrate",[1]; inhibitor at 0.25 and 0.5 μM,approximately 50%
same,"mechanism of enzyme inhibition, O-methylation of 2-OH-E2 and 4-OH-E2",[1]; section on human placental cytosolic COMT (sentence prints human liver COMT),mixed (competitive plus noncompetitive)
same,"mechanism of inhibition, O-methylation of 2-OH-E2 and 4-OH-E2",[3]; human liver and placental COMT,mixed (competitive plus noncompetitive)
same,higher inhibition potency for the O-methylation of 4-OH-E2 than for the O-methylation of 2-OH-E2,[3]; human liver or placental cytosolic COMT,1.5 to 7 fold
same,IC50 values for inhibiting the methylation of 2-OH-E2,[3]; [4],800 to 1400 nM
same,IC50 values for inhibiting the methylation of 4-OH-E2,[3]; [4],200 to 800 nM
same,"VMAX, 4-OH-E2 as substrate, in presence of inhibitor","[2]; HL1C + 1 μM inhibitor, no inhibitor: 6408",2825 pmol/mg protein/min
same,"VMAX, 4-OH-E2 as substrate, in presence of inhibitor","[2]; HL6C + 2 μM inhibitor, no inhibitor: 6310",3292 pmol/mg protein/min
same,"change of apparent KM value, O-methylation of 4-OH-E2",[2]; inhibitor at 1 μM,slightly increased
same,"decrease of apparent VMAX value, O-methylation of 4-OH-E2",[2]; inhibitor at 1 μM,approximately 50%
same,"mechanism of enzyme inhibition, O-methylation of 4-OH-E2",[2]; inhibitor at 1 μM,primarily a noncompetitive mechanism
